Calls of active or inactive are those of the source.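 The calls were made as follows: active = fitted dose curve rising to 40 percent activity within the top usable dose; inconclusive = flat curve between 30 and 70 percent, or poor fit; inactive = the rest, including signal moving the wrong way.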
Tested on: Huh7 miR-122 levels, qRT-PCR, 48 h
Test: miR-122 upregulation in Huh7 hepatoma cells – cell-based, qRT-PCR, dry powder, orthogonal assay, dose response (AID 720726)
Details: not given
Compound `CCCC#Cc1ccc2c(c1)O[C@H](CN(C)C(=O)COC)[C@H](C)CN([C@@H](C)CO)S2(=O)=O` has an AC40 of 23.9 µM. `COCC(=O)N(C)C[C@H]1Oc2cc(C#Cc3cccnc3)ccc2S(=O)(=O)N([C@H](C)CO)C[C@H]1C` gave an AC40 of 16.9 µM. Work on `CCCC#Cc1ccc2c(c1)O[C@H](CN(C)C(=O)c1ccncc1)[C@H](C)CN([C@@H](C)CO)S2(=O)=O` yielded an AC40 of 3.54 µM. `Cc1cccc(NC(=O)Nc2ccc3c(c2)C(=O)N(C)[C@@H]2CC[C@H](CC(=O)NCc4ccccc4Cl)O[C@H]2CO3)c1` showed an AC40 of 8.38 µM. For `COCC(=O)N(C)C[C@H]1Oc2cc(-c3ccccc3F)ccc2S(=O)(=O)N([C@H](C)CO)C[C@H]1C`, the AC40 was 18.9 µM.

Tested on: not listed separately
Test: as above
Details: Huh7 miR-122 levels, qRT-PCR, 48 h; at 30 µM (top of the series)
For `CN1C(=O)c2cc(NC(=O)c3cccc(F)c3)ccc2OC[C@@H]2O[C@@H](CC(=O)O)CC[C@H]21`, the miR-122 fold change was 0.927 fold change (inactive).

Same assay, conditions: Huh7 miR-122 levels, qRT-PCR, 48 h; at 35 µM (top of the series)
With `C[C@@H]1CN([C@@H](C)CO)S(=O)(=O)c2ccc(C#Cc3ccncc3)cc2O[C@@H]1CN(C)C(=O)C1CCOCC1` the miR-122 fold change was 0.563 fold change (inactive). With `CN1C(=O)c2cc(NC(=O)c3cccc(F)c3)ccc2OC[C@H]2O[C@@H](CC(=O)O)CC[C@H]21` the miR-122 fold change was 1.38 fold change (inactive). With `C[C@H]1CN([C@@H](C)CO)C(=O)c2cc(-c3ccc(C#N)cc3)cnc2O[C@H]1CN(C)C(=O)Nc1ccc(C(F)(F)F)cc1` the miR-122 fold change was 0.749 fold change (inactive). For `CN1C(=O)c2cc(NC(=O)c3cccc(F)c3)ccc2OC[C@@H]2O[C@H](CC(=O)O)CC[C@H]21`, the miR-122 fold change was 0.958 fold change (inactive). With `O=C(CN=C1NS(=O)(=O)c2ccccc21)Nc1ccccc1N1CCCCCC1` the miR-122 fold change was 1.09 fold change (inactive). In the case of `COCC(=O)N(C)C[C@H]1Oc2cc(-c3ccccc3F)ccc2S(=O)(=O)N([C@@H](C)CO)C[C@H]1C`, the miR-122 fold change was 0.823 fold change (inactive). For `Cc1cccc(NC(=O)Nc2ccc3c(c2)C(=O)N(C)[C@@H]2CC[C@@H](CC(=O)NCc4ccccc4Cl)O[C@H]2CO3)c1`, the miR-122 fold change was 1.25 fold change (inactive). In the case of `COc1cccc(C(=O)Nc2ccc3c(c2)C(=O)N(C)C[C@@H](OC)[C@@H](C)CN[C@@H](C)CO3)c1`, the miR-122 fold change was 1.15 fold change (inactive). In the case of `O=C(CNCCC1=CCCCC1)Nc1ccccc1N1CCCCCC1`, the miR-122 fold change was 0.489 fold change (inactive). For `C[C@H]1CN([C@@H](C)CO)C(=O)c2cc(-c3ccc(C#N)cc3)cnc2O[C@H]1CN(C)Cc1cncnc1`, the miR-122 fold change was 0.987 fold change (inactive). For `CN1C(=O)c2cc(NC(=O)c3cccc(F)c3)ccc2OC[C@H]2O[C@H](CC(=O)O)CC[C@H]21`, the miR-122 fold change was 0.909 fold change (inactive). With `C[C@@H]1CN([C@@H](C)CO)S(=O)(=O)c2ccc(C#Cc3ccncc3)cc2O[C@H]1CN(C)C(=O)C1CCOCC1` the miR-122 fold change was 0.639 fold change (inactive). In the case of `COCC(=O)N(C)C[C@H]1Oc2cc(-c3ccc(C#N)cc3)ccc2S(=O)(=O)N([C@H](C)CO)C[C@H]1C`, the miR-122 fold change was 0.895 fold change (inactive). With `COCC(=O)N(C)C[C@H]1Oc2cc(C#Cc3cccnc3)ccc2S(=O)(=O)N([C@@H](C)CO)C[C@H]1C` the miR-122 fold change was 0.983 fold change (inactive). For `C[C@H]1CN([C@@H](C)CO)S(=O)(=O)c2ccc(C#Cc3ccncc3)cc2O[C@H]1CN(C)C(=O)C1CCOCC1`, the miR-122 fold change was 0.373 fold change (inactive). For `COc1ccc(-c2cnc3c(c2)C(=O)N([C@@H](C)CO)C[C@H](C)[C@H](CN(C)S(=O)(=O)c2ccc(OC)cc2)O3)cc1`, the miR-122 fold change was 1.26 fold change (inactive). In the case of `C[C@H]1CN([C@@H](C)CO)S(=O)(=O)c2ccc(C#Cc3ccncc3)cc2O[C@@H]1CN(C)C(=O)C1CCOCC1`, the miR-122 fold change was 0.399 fold change (inactive). For `O=C(NCCC1=CCCCC1)c1ccc2c(c1)sc1nc(-c3ccccc3)cn12`, the miR-122 fold change was 0.828 fold change (inactive). With `CO[C@@H]1CN(C)C(=O)c2cc(NC(=O)c3cccc(Oc4ccccc4)c3)ccc2OC[C@H](C)NC[C@@H]1C` the miR-122 fold change was 0.113 fold change (inactive). In the case of `CO[C@@H]1CN(C)C(=O)c2cc(NS(=O)(=O)c3ccc(Oc4ccccc4)cc3)ccc2OC[C@H](C)NC[C@@H]1C`, the miR-122 fold change was 0.882 fold change (inactive). In the case of `OCc1ccc(-c2nn(Cc3ccccc3)c3ccccc23)o1`, the miR-122 fold change was 0.428 fold change (inactive). With `Cn1c(=O)c(=O)n(C)c2cc(S(=O)(=O)N3CCOCC3)ccc21` the miR-122 fold change was 1.28 fold change (inactive). In the case of `O=C(c1ccc(CN2CCOCC2)cc1)N1CCc2ccccc21`, the miR-122 fold change was 1 fold change (inactive). In the case of `COc1cccc(-c2ccc3c(c2)O[C@H](CN(C)C(=O)C2CCOCC2)[C@H](C)CN([C@@H](C)CO)S3(=O)=O)c1`, the miR-122 fold change was 0.896 fold change (inactive). With `C[C@@H]1CN([C@H](C)CO)S(=O)(=O)c2ccc(C#Cc3ccncc3)cc2O[C@@H]1CN(C)C(=O)C1CCOCC1` the miR-122 fold change was 0.732 fold change (inactive). In the case of `CN(CC(=O)Nc1cccc(Cl)c1)S(=O)(=O)c1ccc2c(c1)n(C)c(=O)c(=O)n2C`, the miR-122 fold change was 1.27 fold change (inactive). In the case of `CCn1cc(C(=O)O)c(=O)c2cc(F)c(N3CCNCC3)nc21`, the miR-122 fold change was 0.972 fold change (inactive). In the case of `CO[C@@H]1CN(C)C(=O)c2cc(NC(=O)c3ccc4c(c3)OCO4)ccc2OC[C@H](C)NC[C@@H]1C`, the miR-122 fold change was 1.02 fold change (inactive). With `CN1C(=O)c2cc(NC(=O)c3cccc(F)c3)ccc2OC[C@@H]2O[C@@H](CC(=O)O)CC[C@@H]21` the miR-122 fold change was 0.94 fold change (inactive). For `Nc1ccc(Oc2ccc(Cl)cc2)cc1`, the miR-122 fold change was 0.496 fold change (inactive). For `C[C@H](CO)N1C[C@H](C)[C@@H](CN(C)C(=O)C2CCOCC2)Oc2cc(C#Cc3ccncc3)ccc2S1(=O)=O`, the miR-122 fold change was 0.407 fold change (inactive). In the case of `C[C@H]1CN([C@@H](C)CO)C(=O)c2cc(-c3ccc(C#N)cc3)cnc2O[C@H]1CN(C)C(=O)c1ccccc1`, the miR-122 fold change was 1.14 fold change (inactive). With `C[C@H]1CN([C@@H](C)CO)C(=O)c2cc(C#Cc3ccccc3F)cnc2O[C@H]1CN(C)C(=O)C1CCCCC1` the miR-122 fold change was 0.569 fold change (inactive). In the case of `O=C(NCc1ccccc1Cl)c1ccc(CNc2c(NC3CCCCC3)c(=O)c2=O)cc1`, the miR-122 fold change was 0.171 fold change (inactive). In the case of `Cc1cc(C(C)(C)C)cc(S(=O)(=O)N2CCOCC2)c1C`, the miR-122 fold change was 0.977 fold change (inactive). In the case of `CCOC(=O)N1CCC(NC(=O)c2ccc3nc(N4CCC(C)CC4)sc3c2)CC1`, the miR-122 fold change was 1 fold change (inactive). For `C/C=C/c1cnc2c(c1)C(=O)N([C@@H](C)CO)C[C@H](C)[C@H](CN(C)S(=O)(=O)c1ccc(OC)cc1)O2`, the miR-122 fold change was 1.05 fold change (inactive). With `C[C@@H]1CN([C@H](C)CO)S(=O)(=O)c2ccc(C#Cc3ccncc3)cc2O[C@H]1CN(C)C(=O)C1CCOCC1` the miR-122 fold change was 0.486 fold change (inactive). With `Cc1cc(C(C)(C)C)cc(S(=O)(=O)NCCc2ccncc2)c1C` the miR-122 fold change was 1.04 fold change (inactive). In the case of `CN1C(=O)c2cc(NC(=O)c3cccc(F)c3)ccc2OC[C@H]2O[C@H](CC(=O)O)CC[C@@H]21`, the miR-122 fold change was 0.869 fold change (inactive). For `CNC[C@@H]1Oc2cc(C#CC3CCCCC3)ccc2S(=O)(=O)N([C@@H](C)CO)C[C@@H]1C`, the miR-122 fold change was 1.07 fold change (inactive). In the case of `COc1ccc(S(=O)(=O)N(C)C[C@@H]2Oc3ncc(/C=C/c4ccccc4)cc3C(=O)N([C@@H](C)CO)C[C@@H]2C)cc1`, the miR-122 fold change was 0.9 fold change (inactive). With `COCC(=O)N(C)C[C@H]1Oc2cc(-c3ccc(C#N)cc3)ccc2S(=O)(=O)N([C@@H](C)CO)C[C@H]1C` the miR-122 fold change was 1.17 fold change (inactive). In the case of `COCC(=O)N(C)C[C@@H]1Oc2ncc(-c3ccc(C#N)cc3)cc2C(=O)N([C@@H](C)CO)C[C@@H]1C`, the miR-122 fold change was 1.01 fold change (inactive). For `CN(C)CCN1C(=O)c2cccc3cc(N)cc(c23)C1=O`, the miR-122 fold change was 0.364 fold change (inactive). With `CCCCN(CCCC)C(=O)CN(C)S(=O)(=O)c1ccc2c(c1)n(C)c(=O)c(=O)n2C` the miR-122 fold change was 0.906 fold change (inactive). In the case of `O=C(Nc1ccc(-c2nc3ccccc3o2)cc1)c1cc(-n2cnnc2)ccc1Cl`, the miR-122 fold change was 0.17 fold change (inactive). In the case of `C[C@H]1CN([C@@H](C)CO)C(=O)c2cc(C#Cc3ccccc3F)cnc2O[C@@H]1CN(C)C(=O)C1CCCCC1`, the miR-122 fold change was 0.164 fold change (inactive). In the case of `C[C@H](CO)N1C[C@H](C)[C@H](CN(C)C(=O)C2CCOCC2)Oc2cc(C#Cc3ccncc3)ccc2S1(=O)=O`, the miR-122 fold change was 0.417 fold change (inactive). With `CN(C)CCCOc1nn(Cc2ccccc2)c2ccccc12` the miR-122 fold change was 1.5 fold change (inactive). In the case of `CCN(CC)C(=O)c1cccc(NC(=O)c2ccc(Cl)cc2Cl)c1`, the miR-122 fold change was 0.931 fold change (inactive). With `Nc1ccc(Oc2ccc(Br)cc2)cc1` the miR-122 fold change was 0.505 fold change (inactive). With `CN1C(=O)c2cc(NC(=O)c3cccc(F)c3)ccc2OC[C@@H]2O[C@H](CC(=O)O)CC[C@@H]21` the miR-122 fold change was 0.92 fold change (inactive). For `C[C@@H]1CN([C@H](C)CO)S(=O)(=O)c2ccc(/C=C/c3ccccc3)cc2O[C@@H]1CN(C)C(=O)c1cccnc1`, the miR-122 fold change was 1.11 fold change (inactive). For `CN1C(=O)c2cc(NC(=O)c3cccc(F)c3)ccc2OC[C@H]2O[C@@H](CC(=O)O)CC[C@@H]21`, the miR-122 fold change was 1.24 fold change (inactive). With `CCOC(=O)N1CCC(NC(=O)c2ccc3c(c2)sc2nc(-c4ccccc4)cn23)CC1` the miR-122 fold change was 0.356 fold change (inactive). For `O=C(c1ccc(CNc2c(NC3CCCCC3)c(=O)c2=O)cc1)N1CCc2ccccc21`, the miR-122 fold change was 0.521 fold change (inactive). For `O=S(=O)(NCCc1ccncc1)c1ccccc1`, the miR-122 fold change was 1.01 fold change (inactive).
